{"source": "patent US20250352609A1", "about": "“Methods For Treating Alzheimer's Disease or Dementia Using A Calcilytic And A Calcimimetic” (The United States Government As Represented By The …, priority 2024, published 2025)", "key": {"18 MOA male C57/B6 mice": {"system": "18 MOA male C57/B6 mice", "experiment": "Y-maze test, aging-induced cognitive declines, Etelcalcetide", "assay_type": "in vivo", "details": "18 MOA vs 5 MOA male C57/B6 mice, 8 weeks daily (5 days/week) injections, 500 μg/kg", "description": "Spont Alt indices of Y-maze test in 5 and 18 MOA male C57/B6 mice after 8 weeks of daily (5 days/week) injections of vehicle, 500 μg/kg Etelcalcetide (Etel) and/or 12 μmole/kg NPS-2143 (2143). Mean±SE, p values by one-way ANOVA, n=6-12 mice/group.\n(§1) Based on the outcomes of the above genetically manipulated mice, it was tested whether pharmacological manipulations of serum PTH levels with blood-brain barrier (BBB)-impermeable calcimimetics (e.g., etelcalcetide) that activate CaSR homodimers in PTCs to suppress PTH secretion can prevent the cognitive declines in the aging and APP^NL-G-F/NL-G-F mice."}, "serum PTH (sPTH)": {"system": "serum PTH (sPTH)", "experiment": "Serum PTH in aging-associated HPT mice", "assay_type": "in vivo", "details": "aged male C57/B6 mice; aducanumab 40 mg/kg/week by twice weekly injections for 5 weeks; Etelcalcetide 0.3 mg/kg once daily"}, "APP^NL-G-F mice": {"system": "APP^NL-G-F mice", "experiment": "Y-maze test, cognitive declines in EOAD mice, Etelcalcetide", "assay_type": "in vivo", "details": "APP^NL-G-F mice at 10 MOA, daily (5 days/week) injections 500 μg/kg beginning at 6 MOA", "description": "Spont Alt indices of Y-maze test in 10 MOA mice carrying humanized Ab sequence without (bAb-KI) or with (APP^NLGF) 4 mutations identified from EOAD patients after daily (5 days/week) injections of vehicle, 500 μg/kg Etelcalcetide (Etel) and/or 12 μmole/kg NPS-2143 (2143) beginning at 6 MOA. Mean±SE, p values by one-way ANOVA, n=19-37 mixed male and female mice/group.\nas §1"}, "murine PTGs": {"system": "murine PTGs", "experiment": "Ex vivo tonic PTH secretion from cultured murine PTGs", "assay_type": "cell-based", "description": "Ex vivo assessments of the impact of different concentrations (0.3 to 1000 nM) Aβ1-42 on PTH secretion from intact PTGs cultured from the 3-month-old mice with homozygous parathyroid-specific App gene KO (square); homozygous parathyroid-specific App and Casr double gene KO (up triangle); homozygous parathyroid-specific App and Gabbr1 double gene KO (down triangle); or homozygous parathyroid-specific App, Casr, and Gabbr1 triple gene KO (diamond). Mean±s.e.m. of n mice as indicated in the plots.\n(§2) This stimulatory effect was absent in murine PTGs lacking either CaSR or GABAB1R."}, "[1]": {"system": "iPSC-derived neurons co-expressing CASR and GABAB1R", "experiment": "cAMP production in iPSC-derived neurons challenged by Aβ42", "assay_type": "cell-based", "details": "iPSC-derived neurons perfused with Aβ42", "description": "Averaged time courses of CAMP in normal iPSC-derived neurons natively expressing CaSR and GABAB1R and challenged by Ab1-42. Cells were continuously perfused with buffer without or with Aβ42 (horizontal bar). Data represent the mean value s.e.m. of n=20 cells and N=3 experiments.\nGiven that HPT can cause chronic inflammation (Cheng, S. P., et al. Mediators Inflamm 2014, 709024 (2014); çrakolu, M. F. et al. ENT Updates 11, 115-119 (2021); and Almqvist, E. G., et al. Scandinavian journal of clinical and laboratory investigation 71, 139-144 (2011)) and that CaSR expression increases in inflammatory responses in pathological conditions (Jager, E. et al. Nat Commun 11, 4243 (2020); and Iamartino, L. & Brandi, M. L. Front Physiol 13, 1059369 (2022)), including in AD, through interleukin (IL)-1β (IL1β) and IL-6-induced NFkb cis-acting response of CASR gene (Canaff, L. & Hendy, G. N. J Biol Chem 280, 14177-14188 (2005); and Hendy, G. N. & Canaff, Semin Cell Dev Biol 49, 37-43 (2016)), HPT-induced inflammation could be a leading cause for CaSR upregulation as well as for Aβ buildup in AD (Kinney, J. W. et al. Alzheimers Dement (N Y) 4, 575-590 (2018); Ilievski, V. et al. PloS one 13, e0204941 (2018); and Yamamoto, M. et al. Am J Pathol 170, 680-692 (2007))."}, "human PTGs": {"system": "human PTGs", "experiment": "Tonic PTH secretion from cultured human PTGs", "assay_type": "cell-based", "details": "exogenous Aβ1-42 0.3 to 1000 nM, concentration-dependent, vs control", "description": "as §2"}, "Tau phosphorylation": {"system": "Tau phosphorylation", "experiment": "Aβ1-42-stimulated PTH secretion in vitro with Tau phosphorylation inhibitor", "assay_type": "cell-based", "details": "inhibition of Tau phosphorylation", "description": "In support of this finding, inhibition of Tau phosphorylation by a staurosporine analogue (K252a) blocked the ability of Aβ1-42 to stimulate PTH secretion in vitro, and the increased tonic PTH hypersecretion seen in mice with PTC-targeted Vdr gene KO (^PTCVdr^Dflox/Dflox), mimicking vitamin D deficiency, was reversed by a concurrent ablation of App (^PTCVdr^Dflox/Dflox; App^Dflox/Dflox) or the TAU-encoding Mapt (^PTCVdr^Dflox/Dflox; Mapt−/−) gene."}}}
{"compound": "CC(=O)N[C@H](CSSC[C@H](N)C(=O)O)C(=O)N[C@H](C)C(=O)N[C@H](CCCNC(=N)N)C(=O)N[C@H](CCCNC(=N)N)C(=O)N[C@H](CCCNC(=N)N)C(=O)N[C@H](C)C(=O)N[C@H](CCCNC(=N)N)C(N)=O", "note": "[Etelcalcetide]", "values": [{"measurement": "cognitive declines, Y-maze Spont Alt index", "setting": "18 MOA male C57/B6 mice", "result": "partially prevented"}, {"measurement": "reduction of sPTH", "setting": "serum PTH (sPTH)", "result": "> 80", "unit": "%"}, {"measurement": "early cognitive declines, Y-maze Spont Alt index", "setting": "APP^NL-G-F mice", "result": "partially prevented"}]}
{"compound": "Aβ1-42: b-amyloid (Ab1-42), derivative of amyloid precursor protein, added exogenously to PTG cultures", "values": [{"measurement": "stimulation of tonic PTH secretion", "setting": "murine PTGs; exogenous Aβ1-42 0.3 to 1000 nM, concentration-dependent, vs control", "result": "up to 1.6 fold"}, {"measurement": "stimulatory effect on PTH secretion in PTGs lacking either CaSR or GABAB1R", "setting": "murine PTGs; murine PTGs lacking either CaSR or GABAB1R", "result": "absent"}, {"measurement": "Ca^2+-set point", "setting": "murine PTGs; murine and human PTGs, Aβ1-42 0.3 to 1000 nM", "result": "without shifting"}, {"measurement": "cAMP production", "setting": "[1]", "result": "stimulating cAMP production"}, {"measurement": "stimulation of tonic PTH secretion", "setting": "human PTGs", "result": "≤ 1.9", "unit": "fold"}]}
{"compound": "COC(=O)[C@@]1(O)C[C@H]2O[C@]1(C)n1c3ccccc3c3c4c(c5c6ccccc6n2c5c31)C(=O)NC4", "note": "[K252a]", "values": [{"measurement": "ability of Aβ1-42 to stimulate PTH secretion", "setting": "Tau phosphorylation", "result": "blocked"}]}
